Test results published in a melting point compilation (Tetko et al.).

Structure (SMILES) | melting point [°C]
Cn1nc(C(F)(F)F)c(C(=O)O)c1C(F)(F)Cl | 119 to 121
CCN(CC)c1ccc(S(=O)(=O)N2CCOCC2)cc1NC(=O)CCl | 99 to 101
Cc1ncc(CN)n1-c1ccccc1 | 46 to 48
CN(C)S(N)(=O)=O | 94 to 96
CC(C)Oc1c(F)cc(N)cc1F | 60 to 62
Cc1nc2ccccc2n1CC(=O)NN | 233 to 235
N#Cc1cc2ccccc2nc1Cl | 163 to 165
Cc1[nH]c2ccc(C(N)=O)cc2c1C | 169 to 171
O=C(O)c1cnc(-c2ccccn2)s1 | 199 to 201
CCOC(=O)Cn1nc(C)c(C=O)c1C | 79 to 81
Cc1noc2ncc(C(=O)O)cc12 | 229 to 231
O=C(O)c1cccc(N2CCCNC2=O)c1 | 277 to 279
O=C(O)c1cc2ccc(F)cc2s1 | 220 to 222
Cc1ccc(S(=O)(=O)NC2CCCCC2)cc1C(=O)O | 217 to 219
Cc1cc(CO)ccc1Cl | 42 to 44
CC(NC(=O)c1cc(-c2ccccc2)on1)C(=O)O (stereo not given) | 164 to 166
Nc1cc(-c2ccc(Br)o2)no1 | 144 to 146
COc1cn(-c2ccccc2)nc1C(=O)O | 144 to 148
O=C(O)Cc1coc(-c2ccccc2)n1 | 148 to 150
CC(C)C(=O)N1CCCC1C(=O)O (stereo not given) | 118 to 120
CN1CN=C(S)NC1 | 173 to 177
Cc1cc2oc(=O)cc(CCl)c2cc1C | 188 to 190
O=S(=O)(NC1CC1)C1CCN(Cc2ccccc2)C1 (stereo not given) | 94 to 96
Cc1ccc(S(=O)(=O)N2CCC(C(=O)O)CC2)cc1 | 181 to 183

Structure (SMILES) | melting point [°C]
OC(c1ccncc1)c1ccc(F)cc1 (stereo not given) | 136 to 138
O=C(O)C=CC(=O)NCc1ccncc1 | 139 to 141
O=C(O)COc1ccc(S(=O)(=O)Cl)cc1F | 131 to 133
O=C1c2ccccc2N2C(=O)CCC2(C(=O)O)N1Cc1ccccc1 (stereo not given) | 134 to 136
CC(=O)Nc1cccc2c1CCNC2 | 141 to 143
NNc1nc(-c2ccc(Cl)cc2)no1 | 179 to 181
CCc1nc(C=O)c2ccccn12 | 103 to 105
NNc1ccc(S(=O)(=O)NC2CCCCCCC2)cn1 | 140 to 142
Cn1cnnc1Sc1ccc(Br)cc1N | 144 to 146
Nc1c(F)cccc1Oc1ccccc1 | 51 to 53
COc1cc(C=O)c(-c2ccccc2)cc1OC | 133 to 135
COC(=O)c1ccc(I)cn1 | 129 to 131
O=C(O)CC1=C(c2cccs2)N2CCN=C2S1 | 220 to 222
CC1(Cc2ccc3c(c2)OCO3)NC(=O)NC1=O (stereo not given) | 183 to 185
O=C(O)CCC1NC(=O)N(c2ccc(Cl)c(Cl)c2)C1=O (stereo not given) | 173 to 175
O=C(O)c1ncoc1-c1cccc(F)c1 | 169 to 171
O=C(O)c1cccc(S(=O)(=O)Cc2ccccc2)c1 | 214 to 216
Nc1cccc(C(=O)Nc2cccc(F)c2)c1 | 123 to 125
COc1cccc(C=C(CC(=O)O)c2nc3ccccc3s2)c1 | 153 to 155
CCCOc1ccc(C(N)=S)cc1 | 142 to 144
CC(NC(=O)CC1CCCC1)C(=O)O (stereo not given) | 139 to 141
NS(=O)(=O)c1cc(C(=O)O)cc2c1CCC2 | 299 to 301
CCOC(=O)Nc1ccc(Br)cc1 | 79 to 81
N#Cc1ccc(O)c(N)c1 | 149 to 151

Structure (SMILES) | melting point [°C]
O=C(Nc1ccccc1)NC1CCNCC1 | 169 to 171
ON=C(C(=NO)c1ccccc1)c1ccccc1 | 245 to 246
COc1cccc2[nH]cc(CC(=O)O)c12 | 174 to 176
CC(C)C(C(=O)O)c1cccc(Cl)c1 (stereo not given) | 82 to 84
N#Cc1c2c(n(-c3ccccc3)c1NC(=O)CCl)CCCC2 | 156 to 158
Cc1nc2c(c(C)c1CN)c(=O)[nH]n2C | 311 to 313
CC(O)c1cc2ccccc2o1 (stereo not given) | < 17
Clc1ccc(-c2nnc(Cl)c3ccccc23)cc1Cl | 219 to 221
CC(Oc1ccc(C23CC4CC(CC(C4)C2)C3)cc1)C(=O)O (stereo not given) | 153 to 155
O=C(O)CCOc1cccc(Cl)c1 | 85 to 87
COc1ccc(C(=O)O)cc1OCc1ccccn1 | 219 to 221
Cn1c(S)nnc1-c1ccncc1 | 121 to 123
O=C(O)c1cc(NS(=O)(=O)c2ccc(Cl)c([N+](=O)[O-])c2)ccc1O | 239 to 241
O=C(O)c1ccc(F)c(COCc2ccccc2)c1 | 95 to 97
O=C(O)CSc1nnc(-c2ccc3ccccc3c2)o1 | 182 to 184
COc1cc(C(=O)O)ccc1OC(F)F | 171 to 173
O=C(O)C1(c2ccc(Br)cc2)CCOCC1 | 195 to 197
Cc1ccc(-c2nn(-c3ccccc3)cc2C=CC(=O)O)cc1 | 220 to 222
Cc1ccc(OCC(=O)O)c(C=O)c1 | 144 to 146
N#Cc1cc(F)ccc1-n1ccc(N)n1 | 128 to 130
O=C(O)C1=C(Nc2ccccc2)OCC1=O | 140 to 150
C=CCN(CC=C)C(=O)c1ccc(N)cc1 | 104 to 106
